# “And” between values parts separate entries of the source, which are not always exact repeats. Equal values may be shown once.
# What was measured:
# HaCaT cells = assay: M5 cocktail psoriasis-like HaCaT keratinocyte model, live and dead cell numbers by MultiTox-Glo Multiplex Cytotoxicity Assay; settings: for Cell Counts, 0 hours, Dead / Cell Counts, 0 hours, Live / Cell Ratios, 0 hours, Dead / Cell Ratios, 0 hours, Total: 0 hours (baseline); for Cell Counts, 0 hours, Dead / Cell Counts, 0 hours, Live / Cell Counts, 48 hours, Dead / Cell Counts, 48 hours, Total / Cell Counts, 72 hours, Dead / Cell Counts, 72 hours, Total: M5 cocktail, ± standard deviation; for Cell Ratios, 0 hours, Dead / Cell Ratios, 0 hours, Total / Cell Ratios, 48 hours, Dead / Cell Ratios, 48 hours, Total / Cell Ratios, 72 hours, Dead / Cell Ratios, 72 hours, Total: relative to 9177 live cells at zero hours
# Protocol: Immortalized human keratinocytes (HaCaT cells) purchased from AddexBio (San Diego, CA) were maintained in vitro in Dulbecco's modified Eagle's medium (DMEM) supplemented with 10% Fetal Bovine Serum (FBS) and antibiotics (100 U/mL penicillin and […] streptomycin) and cultured in an incubator with 5% CO2 at 37° C.
# HaCaT cells were seeded at approximately 50% density (1×10^4 cells/well) and after 16 h the medium was replaced with 50 μL of pre-treatment medium containing different concentrations of allopurinol (0, 0.5, or 3 mM) or methotrexate (1 μM) and placed back into the incubator. Treatment media was prepared using standard media containing vehicle control (PBS) or M5 cocktail.
# Other HaCaT cells were incubated in vitro for 72 hours in the presence of a M5 composition that also included 1.0 μM methotrexate, 0.5 mM allopurinol, 3.0 mM allopurinol, 0.5 mM oxypurinol, or 3.0 mM oxypurinol.
# The number of live and dead cells were determined by the MultiTox-Glo Multiplex Cytotoxicity Assay (Promega, Madison WI) according to the manufacturer's protocol. A dilution series of cells was used to generate a standard curve for calculation of cell number in each well. The total number of cells was the sum of the live and dead cells.
# Ki67 = assay: MatTek PSE culture system, Ki67 level by PCR; assay type: cell-based, human; settings: for Relative Ki67 Level: Day 6, normalized to control at Day 0 = 1.0; for Relative Expression Levels, Ki67: after two days of treatment
# Protocol: The level of Ki67 in the MatTek tissue culture system was also determined. Ki67 is a nuclear protein and a replication marker. The level of Ki67 was determined by polymerase chain reaction (PCR) analysis with standard protocols. The relative levels are normalized with respect to the measured Ki67 level of the control at Day 0, which is adjusted to 1.0.
# (§1) Other markers of cell proliferation were also measured, namely (protein p21), and four markers of inflammatory signaling (IL17A, IL23A, TNF-α, and transforming growth factor beta (TGF-β)) in the MatTek PSE culture system after two days of treatment were also determined. Ki67 is a nuclear protein and a replication marker. The marker levels were determined by isolating total RNA by a Promega SV96 Total RNA Isolation Vacuum System (Promega, Madison, WI) according to the manufacturer's instructions. The total RNA was reverse transcribed using an ABI High Capacity cDNA reverse transcription kit (Applied Biosystems, Foster City, CA). Quantitative real-time polymerase chain reaction (qPCR) was performed with the use of a SYBR Green PCR Master Mix (Applied Biosystems) according to the manufacturer's protocol and amplified on a StepOnePlus Real-Time PCR System.
# p21 = assay: MatTek PSE culture system, p21 mRNA by qPCR; assay type: cell-based, human; settings: after two days of treatment
# Protocol: as §1
# IL17A = assay: MatTek PSE culture system, IL17A mRNA by qPCR; assay type: cell-based, human; settings: after two days of treatment
# Protocol: as §1
# IL23A = assay: MatTek PSE culture system, IL23A mRNA by qPCR; assay type: cell-based, human; settings: after two days of treatment
# Protocol: as §1
# TNF-α = assay: MatTek PSE culture system, TNF-α mRNA by qPCR; assay type: cell-based, human; settings: after two days of treatment
# Protocol: as §1
# TGF-β = assay: MatTek PSE culture system, TGF-β mRNA by qPCR; assay type: cell-based, human; settings: after two days of treatment
# Protocol: as §1
# p21/Ki67 = assay: MatTek PSE culture system, ratio of p21 to Ki67 mRNA levels; assay type: cell-based, human; settings: after two days of treatment; treatment compositions of Table 5
# Protocol: Ki67 is a replication marker for cells and the lower the value, the lower the replication rate. P21 is a protein which is a marker for the inhibition of cell proliferation. Thus, an increased ratio of P21/Ki67 indicates decreased cell replication. FIG. 9 illustrates this ratio under several conditions as described in Example 2.
# as §1
# To highlight effects on cell proliferation, the ratio of p21 to Ki67 mRNA levels were calculated, with the results being shown in FIG. 9.
# psoriasis [1] = settings: Viglioglia et al. 1970; cited from earlier work
# psoriasis [2] = settings: oral administration; double-blind cross-over study, Feuerman et al. 1973; cited from earlier work
# hand-foot syndrome = settings: topical; prevention of hand-foot syndrome; trial by Rodemer; cited from earlier work
# [3] = tested on: MatTek human PSE culture system (SOR-300-FT); assay: MatTek human PSE culture system, tissue layer thickness and histology
# Description: The thickness of each of the three tissue layers of skin was monitored and measured after two days and after six days of exposure to the treatment medium in a blinded fashion by a board-certified and nationally respected pathologist.
structure (smiles),measurement,setting,value
Oc1ncnc2[nH]ncc12 [allopurinol],"Cell Counts, 0 hours, Dead",HaCaT cells; 0.5 mM,801 ± 19
same,"Cell Counts, 0 hours, Live",HaCaT cells; 0.5 mM,9177 ± 90
same,"Cell Ratios, 0 hours, Dead",HaCaT cells; 0.5 mM,0.087
same,"Cell Ratios, 0 hours, Total",HaCaT cells; 0.5 mM,1.087
same,"Cell Counts, 48 hours, Dead",HaCaT cells; 0.5 mM,2319 ± 141
same,"Cell Counts, 48 hours, Total",HaCaT cells; 0.5 mM,11705 ± 161
same,"Cell Ratios, 48 hours, Dead",HaCaT cells; 0.5 mM,0.253
same,"Cell Ratios, 48 hours, Total",HaCaT cells; 0.5 mM,1.275
same,"Cell Counts, 72 hours, Dead",HaCaT cells; 0.5 mM,4024 ± 166
same,"Cell Counts, 72 hours, Total",HaCaT cells; 0.5 mM,13428 ± 216
same,"Cell Ratios, 72 hours, Dead",HaCaT cells; 0.5 mM,0.44 and 0.438
same,"Cell Ratios, 72 hours, Total",HaCaT cells; 0.5 mM,1.46 and 1.463
same,"Cell Counts, 0 hours, Dead",HaCaT cells; 3.0 mM,801 ± 19
same,"Cell Counts, 0 hours, Live",HaCaT cells; 3.0 mM,9177 ± 90
same,"Cell Ratios, 0 hours, Dead",HaCaT cells; 3.0 mM,0.087
same,"Cell Ratios, 0 hours, Total",HaCaT cells; 3.0 mM,1.087
same,"Cell Counts, 48 hours, Dead",HaCaT cells; 3.0 mM,1275 ± 117
same,"Cell Counts, 48 hours, Total",HaCaT cells; 3.0 mM,9038 ± 176
same,"Cell Ratios, 48 hours, Dead",HaCaT cells; 3.0 mM,0.139
same,"Cell Ratios, 48 hours, Total",HaCaT cells; 3.0 mM,0.985
same,"Cell Counts, 72 hours, Dead",HaCaT cells; 3.0 mM,2004 ± 168
same,"Cell Counts, 72 hours, Total",HaCaT cells; 3.0 mM,9367 ± 280
same,"Cell Ratios, 72 hours, Dead",HaCaT cells; 3.0 mM,0.22 and 0.218
same,"Cell Ratios, 72 hours, Total",HaCaT cells; 3.0 mM,1.02 and 1.021
same,Relative Ki67 Level,Ki67; 0.5 mM,3.18
same,"Relative Expression Levels, Ki67",Ki67; 0.5 mM,0.27 ± 0.01
same,Relative Ki67 Level,Ki67; 3 mM,0.96
same,"Relative Expression Levels, Ki67",Ki67; 3 mM,0.42 ± 0.09
same,"Relative Expression Levels, p21",p21; 0.5 mM,1.27 ± 0.10
same,"Relative Expression Levels, p21",p21; 3 mM,1.40 ± 0.17
same,"Relative Expression Levels, IL17A",IL17A; 0.5 mM,0.21 ± 0.07
same,"Relative Expression Levels, IL17A",IL17A; 3 mM,0.09 ± 0.04
same,"Relative Expression Levels, IL23A",IL23A; 0.5 mM,0.95 ± 0.20
same,"Relative Expression Levels, IL23A",IL23A; 3 mM,0.66 ± 0.17
same,"Relative Expression Levels, TNF-α",TNF-α; 0.5 mM,0.75 ± 0.13
same,"Relative Expression Levels, TNF-α",TNF-α; 3 mM,0.82 ± 0.19
same,"Relative Expression Levels, TGF-β",TGF-β; 0.5 mM,0.90 ± 0.09
same,"Relative Expression Levels, TGF-β",TGF-β; 3 mM,0.60 ± 0.12
same,p21/Ki67 ratio (mRNA levels),p21/Ki67,markedly increased
same,cases with excellent results,psoriasis [1],50%
same,cases with good results,psoriasis [1],34%
same,cases with moderate results,psoriasis [1],16%
same,improvement in psoriasis versus placebo,psoriasis [2],no improvement over a placebo
same,clinical efficacy endpoint,hand-foot syndrome,did not meet its clinical efficacy endpoint
same,"Layer Thickness, Dermis","[3]; 0.5 mM, 2 days",0.4 mm
same,"Layer Thickness, Epidermis","[3]; 0.5 mM, 2 days",0.1 mm
same,"Layer Thickness, Stratum Corneum","[3]; 0.5 mM, 2 days",0.05 mm
same,"Layer Thickness, Dermis","[3]; 0.5 mM, 6 days",0.25 mm
same,"Layer Thickness, Epidermis","[3]; 0.5 mM, 6 days",0.1 mm
same,"Layer Thickness, Stratum Corneum","[3]; 0.5 mM, 6 days",0.05 mm
same,increase in dermis layer thickness from treatment for 2 days to 6 days,[3]; 3.0 mM allopurinol alone,1.4 fold
same,"Layer Thickness, Dermis","[3]; 3 mM, 2 days",0.25 mm
same,"Layer Thickness, Epidermis","[3]; 3 mM, 2 days",0.1 mm
same,"Layer Thickness, Stratum Corneum","[3]; 3 mM, 2 days",0.02 mm
same,"Layer Thickness, Dermis","[3]; 3 mM, 6 days",0.35 mm
same,"Layer Thickness, Epidermis","[3]; 3 mM, 6 days",0.15 mm
same,"Layer Thickness, Stratum Corneum","[3]; 3 mM, 6 days",0.1 mm
N[C@@H](CCC(=O)N[C@@H](CS)C(=O)NCC(=O)O)C(=O)O [glutathione],"Relative Expression Levels, Ki67",Ki67; 3 mM,0.27 ± 0.01
same,"Relative Expression Levels, p21",p21; 3 mM,1.35 ± 0.06
same,"Relative Expression Levels, IL17A",IL17A; 3 mM,0.04 ± 0.02
same,"Relative Expression Levels, IL23A",IL23A; 3 mM,0.79 ± 0.14
same,"Relative Expression Levels, TNF-α",TNF-α; 3 mM,0.29 ± 0.07
same,"Relative Expression Levels, TGF-β",TGF-β; 3 mM,0.77 ± 0.10
same,p21/Ki67 ratio (mRNA levels),p21/Ki67,markedly increased
same,"Layer Thickness, Dermis","[3]; 3 mM, 2 days",0.3 mm
same,"Layer Thickness, Epidermis","[3]; 3 mM, 2 days",0.2 mm
same,"Layer Thickness, Stratum Corneum","[3]; 3 mM, 2 days",0.15 mm
